Reference: BindingDB's records for doi:10.1021/jm00101a030 (University of Michigan, 1992)

Experiment: Binding affinity against Opioid receptor delta 1 in guinea pig brain homogenates, using [3H]DPDPE as radioligand.

SMILES | Ki [nM]
CC1(C)SSC[C@@H](NC(=O)[C@@H]2NCC[C@@H]2c2ccc(O)cc2)C(=O)N[C@@H](Cc2ccccc2)C(=O)N[C@@H]1C(=O)O | 84
CC1(C)SSC[C@@H](NC(=O)[C@H]2NCC[C@@H]2c2ccc(O)cc2)C(=O)N[C@@H](Cc2ccccc2)C(=O)N[C@@H]1C(=O)O | 0.66
